Results taken from patent US9540646B2, “Cellular targets for HIV infection” (priority 2012, dated 2017).
Entries after “also recorded” stand apart in the source; their conditions may differ. Where two headings read alike, the source gives them in different places.

Experiments:
[1] = system: β-lactamase containing HIVBaL; assay: HIV Entry Assay (β-lactamase / CCF2-AM) in primary human macrophages; assay type: cell-based, Human immunodeficiency virus-1 (HIV); conditions: for reduction in viral entry (percentage of cells with viral entry) relative to HIV only: 100 μM, 4 hours, MOI 0.001-0.01, oATP N=5, others N=3
Procedure: HIV Entry Assay: Primary human macrophages were cultured in black 96-well plates with a clear bottom (Corning Inc., Corning, N.Y.) at a density of 43,000 cells per well. After 7-8 days in culture, cells were inoculated with β-lactamase containing HIVBaL at a multiplicity of infection (MOI) of 0.01, 0.005, or 0.001 in the presence or absence of the purinergic receptor inhibitors oATP, NF 279, A-740003, or MRS 2179 for 4 hours. Beta-lactamase containing HIVBaL was generated as described previously (27). Briefly, HEK-293T cells were transfected using calcium phosphate with two plasmids, one containing the HIVBaL genome, pWT/BaL (NIH repository), the other containing β-lactamase fused to REV vpr, pMM310 (NIH repository). Cells were transfected for 16 hours and then supernatant was collected 24 and 48 hours following transfection. […] Viral stocks were generated by sucrose gradient purification of the transfection supernatants.
Alter viral inoculation of primary human macrophages, cells were washed with phenol red-free DMEM (Gibco) then loaded with CCF2-AM for 6 hours at room temperature using the GeneBLAzer In Vivo Detection Kit (Invitrogen, Carlsbad, Calif.). CCF2-AM fluoresces green due to an internal fluorescence resonance energy transfer, but when cleaved by β-lactamase, this interaction is lost and the molecule fluoresces blue. Cells were imaged using an Olympus IX70 with a Plan 10×/0.25 air objective lens. Images were collected at room temperature through an Olympus E-620LS camera attached to the microscope through an OM adapter MF-1. Images were collected directly onto a memory card and there was no image processing following image collection. Images were collected for 8 fields in 4 separate wells per condition and percentage of cells positive for viral entry was determined by counting the number of blue cells (cells that virus had entered) as compared to the total number of blue and green cells.

Macrophages = assay: Cell viability of macrophages, live/dead assay; assay type: cell-based; conditions: 100 μM, 24 hours
From the text: Cells were imaged using a Zeiss AxioObserver.D1 with an LD Plan-Neofluar 20×/0.4 air objective lens. Images were collected at room temperature through a Zeiss AxioCam MRm camera using Axiovision software.

HIVADA = assay: HIV replication in primary human macrophages, HIV p24 ELISA; assay type: cell-based, Human immunodeficiency virus-1 (HIV); conditions: for inhibition at 100 µM: Human immunodeficiency virus 1, Macrophage
From the text: Monocyte isolation and macrophage culture: Human monocytes were isolated from leukopaks obtained from the New York Blood Center. Peripheral blood mononuclear cells (PBMCs) were isolated by differential centrifugation using a Ficoll gradient (GE Healthcare, Piscataway, N.J.) and CD14 positive cells were isolated from PBMCs using CD14 monoclonal antibodies that were then bound by magnetic nanoparticles and separated using a magnetic field (Stem Cell Technologies, Vancouver, BC, Canada). Isolated CD14 positive cells were cultured adherently for 6 days in the presence of 10 ng/ml macrophage-colony stimulating factor (PeproTech, Rocky Hill, N.J.) in RPMI 1640 with 10% FBS, 5% human AB serum, 1% P/S, and 10 mM HEPES to differentiate the cells into macrophages.
(§1) HIV replication: After 6 days in culture, macrophages in 48-well plates at a density of 10^5 cells per well were inoculated with 2-20 ng/ml HIVADA, 2 ng/ml HIVYU-2, or 0.2 ng/ml HIVBaL for 24 hours in the presence or absence of purinergic receptor inhibitors. 5 wells were inoculated per condition. After 24 hours, cells were washed with PBS and then cultured with media. Supernatants were collected and medium was changed every 24 hours until 7 days post inoculation (d.p.i.). When the inhibitors oATP, A-740003, MRS 2179, NF 279, BBG, or suramin, were used, they were added when the medium was changed every 24 hours. Viral replication was analyzed by HIV p24 ELISA (Advanced Bioscience Laboratories, Kensington, Md.) according to the manufacturer's instructions

Panx1 hemichannels [2] = molecular target: T1, Panx1 hemichannels (Homo sapiens, UniProt Q96RD7); assay: HIV-induced ethidium (Etd) dye uptake, time lapse fluorescence imaging, in PBMCs and CD4+ T lymphocytes; assay type: cell-based; set-up: endogenous in cells; host or cells: primary human PBMCs and purified CD4+ T lymphocytes from leukopacks (New York Blood Center); conditions: 5 min and 72 h; for Etd uptake (rate) induced by the virus: PBMCs exposed to HIVADA, CD4+ T lymphocytes exposed to HIVADA, HIVBal or HIVLAI, Prob 500 μM, 10Panx1 200 μM, scrPanx1 200 μM, La3+ 200 μM, Cx43E2 1:500, siRNA 10 nM
Procedure: Isolation of human PBMCs and CD4+ T lymphocytes. Anticoagulated blood was obtained from leukopacks obtained from the New York Blood Center as described before (16). PBMCs were isolated by under-layering with Ficoll-Paque (Amersham Bioscience, Uppsala, Sweden) according to the procedure described by the manufacturer. Purified PBMC used in these studies were ˜10% monocytes and ˜90% lymphocytes and other hematopoietic cells, as determined by incubation with premixed human CD45 and CD14 monoclonal antibodies conjugated to FITC and PE, respectively (1:50, Caltag Laboratories, Burlingame, Calif.), followed by fluorescence-activated cell sorter analysis (FACS) as we previously described (17). To obtain a pure population of CD4+ T lymphocytes, monocytes were removed from PBMCs by using CD14 coupled magnetic beads and subsequently CD4+ T lymphocytes were isolated with CD4 coupled magnetic beads (Stem Cell Technologies, Vancouver, BC, Canada).
HIV-infection and quantification of replication. Cell-free viral inocula were obtained from the National Institutes of Health AIDS Research and Reference Reagent Program. Three isolates were used: HIVADA, and HIVBal, two R5 isolates and HIVLAI, an X4 isolate, PBMCs and purified CD4+ T lymphocytes were isolated and activated with phytohemagglutinin (PHA; 5 μg/ml) plus interleukin (IL-2; 5%) in RPMI 1640 for 48 h in polypropylene tubes at a density of 2×10^6 […] PBMCs and CD4+ T lymphocytes were then infected by incubation for 24 h with viral stocks of HIVADA (20 ng p24/ml/1×10^6 cells), HIVLAI (20 ng p24/ml/1×10^6 cells) or HIVBal (0.001 MOI), washed thoroughly, resuspended in fresh medium, and maintained in polypropylene tubes. Uninfected control cells were activated with PHA plus IL-2 for 48 h, washed, and maintained in polypropylene tubes in fresh media without any virus. To determine the levels of HIV infection, the amount of HIV-p24 released into the medium was determined by ELISA (PerkinElmer, Boston, Mass.)
(§2) Dye uptake and time lapse fluorescence imaging. To characterize the functional state of Panx1 hemichannels, dye uptake experiments using ethidium (Etd) bromide were performed as previously described (18, 19). Cells were washed twice in Hank's balanced salt solution and then exposed to Locke's solution (containing: 154 mM NaCl, 5.4 mM KCl, 2.3 mM CaCl2, 5 mM HEPES and pH 7.4) with 5 μM Etd and time lapse microscopy was performed. Phase-contrast and fluorescence microscopy with time-lapse imaging were used to record cell appearance and fluorescence intensity changes in each condition. Fluorescence was recorded every 30 s. The NIH ImageJ program was used for off-line image analysis and fluorescence quantification. For data representation and calculation of Etd uptake slopes, the average of two independent background fluorescence intensity measurements (FB, expressed as arbitrary units, AU) was subtracted from fluorescence intensity′ in each cell (F1). Results of this calculation (F1-FB), for at least 20 cells, were averaged and plotted against time (expressed in minutes). Slopes were calculated using Microsoft Excel software and expressed as AU/min. Microscope and camera settings remained the same in all experiments. Dead cells were clearly identified during the time lapse microscopy due to their non specific Etd uptake (not inhibited by hemichannel blockers) and were not quantified.

Panx1 hemichannels [3] = molecular target: T1, Panx1 hemichannels; assay: HIV-induced Etd uptake in CD4+ T lymphocytes by flow cytometry (FACS); assay type: cell-based; set-up: endogenous in cells; host or cells: primary human PBMCs and purified CD4+ T lymphocytes from leukopacks (New York Blood Center); conditions: HIVADA, 5 min and 72 h
Procedure: Flow cytometry. To measure Etd uptake in CD4+ T cell populations FACS analysis was performed of cells under control conditions or after HIV exposure at several time points. Etd uptake experiments were performed in CD4+ lymphocytes (3-5×10^5), and after the respective time of Etd uptake, cells were fixed with 2% paraformaldehyde for 30 min at room temperature, incubated with 1% BSA in PBS for 30 min and stained with CD4 antibody for 30 min at 4° C. For analyses of Etd positive populations, 10,000 events were acquired on a BD FACS Canto II and analyzed using FlowJo (Ashland, Oreg.) software as we previously described (17, 20).

Panx1 hemichannels [4] = molecular target: T1, Panx1 hemichannels; assay: Etd uptake in CD4+ T lymphocytes induced by chemokines or gp120; assay type: cell-based; set-up: endogenous in cells; host or cells: primary human PBMCs and purified CD4+ T lymphocytes from leukopacks (New York Blood Center); conditions: gp120 1 μg/ml
Procedure: as §2

HIV = HIV replication in macrophage cultures, strain not named; assay type: cell-based; conditions: apyrase data; concentration not given
Procedure: as §1

T1 sequence (Q96RD7 whole entry): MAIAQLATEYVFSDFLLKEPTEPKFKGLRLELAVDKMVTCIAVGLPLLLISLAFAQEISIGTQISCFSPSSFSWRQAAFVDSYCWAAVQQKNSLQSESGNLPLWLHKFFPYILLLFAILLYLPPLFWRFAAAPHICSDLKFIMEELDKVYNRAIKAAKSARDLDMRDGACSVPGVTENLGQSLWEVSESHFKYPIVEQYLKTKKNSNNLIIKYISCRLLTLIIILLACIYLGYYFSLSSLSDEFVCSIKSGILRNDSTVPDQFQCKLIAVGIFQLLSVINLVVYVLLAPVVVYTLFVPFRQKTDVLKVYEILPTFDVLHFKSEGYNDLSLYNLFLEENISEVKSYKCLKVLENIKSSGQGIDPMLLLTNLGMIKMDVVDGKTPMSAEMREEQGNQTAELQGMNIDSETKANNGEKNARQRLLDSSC

Compound: COc1ccc(CC(=O)NC(N=C(NC#N)Nc2cccc3ncccc23)C(C)(C)C)cc1OC (stereo not drawn) [A-740003, N-[1-[[(Cyanoamino)(5-quinolinylamino)methylene]amino]-2,2-dimethylpropyl]-3,4-dimethoxybenzeneacetamide]
- reduction in viral entry (percentage of cells with viral entry) relative to HIV only [1]: did not change
- cell viability (live/dead assay) (Macrophages): did not alter cell viability; also recorded: None of the antagonist caused any decrease in cell viability
- inhibition at 100 µM (HIVADA; read-out: inhibition of HIV p24 production relative to HIV plus the vehicle DMSO): 70 to 91%

Compound: [La+3] [La^3+, Lanthanum]
- Etd uptake (rate) induced by the virus (Panx1 hemichannels [2]): did not cause changes
- Etd uptake (rate) induced by the virus (Panx1 hemichannels [2]; listed as Lanthanum): did not affect

Compound: CNc1ncnc2c1ncn2[C@H]1C[C@H](OP(=O)([O-])[O-])[C@@H](COP(=O)([O-])[O-])O1.[Na+].[Na+].[Na+].[Na+] [MRS 2179, 2′-deoxy-N6-methyladenosine 3′,5′-bisphosphate tetrasodium salt]
- reduction in viral entry (percentage of cells with viral entry) relative to HIV only [1]: did not change
- cell viability (live/dead assay) (Macrophages): did not alter cell viability; also recorded: None of the antagonist caused any decrease in cell viability
- inhibition at 100 µM (HIVADA; 100 μM, 3 independent donors, NF 279 on days 2-7 post inoculation, read-out: inhibition of HIV p24 production as compared to HIV infected cultures without the inhibitors): 60 to 70%

Compound: O=C(Nc1ccc(C(=O)Nc2ccc(C(=O)Nc3ccc(S(=O)(=O)[O-])c4cc(S(=O)(=O)[O-])cc(S(=O)(=O)[O-])c34)cc2)cc1)Nc1ccc(C(=O)Nc2ccc(C(=O)Nc3ccc(S(=O)(=O)[O-])c4cc(S(=O)(=O)[O-])cc(S(=O)(=O)[O-])c34)cc2)cc1.[Na+].[Na+].[Na+].[Na+].[Na+].[Na+] [NF 279, 8,8′-[Carbonylbis(imino-4,1-phenylenecarbonylimino-4,1-phenylenecarbonylimino)]bis-1,3,5-naphthalenetrisulfonic acid hexasodium salt]
- reduction in viral entry (percentage of cells with viral entry) relative to HIV only [1]: 98%
- cell viability (live/dead assay) (Macrophages): did not alter cell viability; also recorded: None of the antagonist caused any decrease in cell viability
- inhibition of HIV p24 production as compared to HIV infected cultures without the inhibitors (HIVADA; 100 μM, 3 independent donors, NF 279 on days 2-7 post inoculation): 90-98%

Compound: Cc1ccc(-c2ccc3c(c2)C=C(C(=O)Nc2ccc(C[N+](C)(C)C4CCOCC4)cc2)CCC3)cc1.[Cl-] [TAK-779]
- Etd uptake induced by R5 viruses (Panx1 hemichannels [2]; CD4+ T lymphocytes, HIVADA and HIVBal, TAK-779 100 ng/ml): reduced

Compound: CCCN(CCC)S(=O)(=O)c1ccc(C(=O)O)cc1 [probenecid]
- Etd uptake induced by the virus, analyzed by FACS (Panx1 hemichannels [3]): reduced Etd uptake
- Etd uptake induced by the virus, analyzed by FACS (Panx1 hemichannels [3]; listed as Probenecid): reduced to control conditions (100%)
- gp120-induced Etd uptake, in presence of blockers (Panx1 hemichannels [4]; 5 min): inhibited
- Etd uptake (rate) induced by the virus (Panx1 hemichannels [2]): completely blocked; also recorded: completely reduced

Compound: Cc1ccc(C(=O)Nc2ccc(S(=O)(=O)O)c3cc(S(=O)(=O)O)cc(S(=O)(=O)O)c23)cc1NC(=O)c1cccc(NC(=O)Nc2cccc(C(=O)Nc3cc(C(=O)Nc4ccc(S(=O)(=O)O)c5cc(S(=O)(=O)O)cc(S(=O)(=O)O)c45)ccc3C)c2)c1 [suramin]
- cell viability (live/dead assay) (Macrophages): None of the antagonist caused any decrease in cell viability; also recorded: without altering cell viability
- inhibition of HIVADA replication (HIVADA; suramin, every time point tested, N=3 donors): 100%

Compound: RANTES/CCL5: a physiological ligand for CCR5
- Etd uptake after single addition of chemokine or gp120 (Panx1 hemichannels [4]; chemokines 100 ng/ml, time course): fast and extremely transient increase (only 5 min)

Compound: apyrase
- reduction in HIV entry in macrophages ([1]; apyrase data, concentration not given): no reduction
- reduction in HIV replication in macrophages (HIV): no reduction
